The source of these data is paper PMC7817263, “Analysis of the Anti-Inflammatory and Analgesic Mechanism of Shiyifang Vinum Based on Network Pharmacology” (Evidence-based Complementary and Alternative Medicine : eCAM, 2021).

In this experiment the target is T1, COX-2 (Homo sapiens, UniProt P35354).
T1 construct: purchased Beyotime Biotechnology (Shanghai, China)
T1 sequence (P35354 18-604): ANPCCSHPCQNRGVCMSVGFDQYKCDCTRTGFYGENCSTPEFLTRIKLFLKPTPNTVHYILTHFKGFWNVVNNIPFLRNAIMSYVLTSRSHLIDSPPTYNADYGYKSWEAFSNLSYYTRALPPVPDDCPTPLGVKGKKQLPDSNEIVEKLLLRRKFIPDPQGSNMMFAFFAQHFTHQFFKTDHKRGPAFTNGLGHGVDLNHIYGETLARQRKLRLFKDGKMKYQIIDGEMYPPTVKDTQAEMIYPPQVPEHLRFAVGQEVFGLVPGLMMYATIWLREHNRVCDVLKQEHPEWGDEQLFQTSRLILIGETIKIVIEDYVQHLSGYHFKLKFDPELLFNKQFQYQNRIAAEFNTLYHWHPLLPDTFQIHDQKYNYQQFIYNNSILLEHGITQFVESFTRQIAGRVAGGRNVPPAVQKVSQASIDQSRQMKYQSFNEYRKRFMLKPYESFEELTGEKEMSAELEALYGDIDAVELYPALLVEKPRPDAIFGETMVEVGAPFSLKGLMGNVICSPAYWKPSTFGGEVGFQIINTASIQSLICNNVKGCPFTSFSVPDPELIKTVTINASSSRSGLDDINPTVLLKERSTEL
The experiment in a line: COX-2 inhibitor screening kit, in vitro enzyme activity test (fluorescence). It counts as biochemical. The settings on record: inhibition of COX-2 enzyme activity, probit regression. As for the experimental part:
The COX-2 inhibitory activities of four monomer compounds and Shiyifang Vinum were detected with the COX-2 inhibitor screening kit. The blank control, 100% enzyme activity control, positive inhibition control, and sample wells were prepared, with three repeat wells in each group.

`O=c1c(O)c(-c2ccc(O)cc2)oc2cc(O)cc(O)c12` [Kaempferol, kaempferol]: half-maximal inhibition (IC50) was put at 30.7 µM.

Consider `O=c1cc(-c2ccc(O)c(O)c2)oc2cc(O)cc(O)c12` [Luteolin, luteolin], for which the IC50 (as a rule, the midpoint of a concentration-inhibition curve) is 10.8 µM.

In turn, `O=c1c(O)c(-c2ccc(O)c(O)c2)oc2cc(O)cc(O)c12` [Quercetin, quercetin] had an IC50 of 3.96 µM.
